Publication PMC11314343, “Improving the Solubility, Stability, and Bioavailability of Albendazole through Synthetic Salts” (Molecules, 2024)
≈ marks a conversion by molar mass, not a printed value.

What was measured:
[1] = Dynamic vapor sorption (DVS), moisture adsorption isotherms; assay type: physicochemical; settings: for water adsorption: 25 °C, at 90% RH
Procedure: The moisture sorption characteristics of all specimens were assessed at a temperature of 25 °C using an automated dynamic vapor sorption analyzer (Surface Measurement Systems, Wembley, UK). Prior to the sorption examination, the samples were equilibrated at a humidity level of 0% relative humidity (RH) to remove any adsorbed moisture. The specimens underwent a gradual variation in relative humidity, transitioning from 0 to 90% RH at intervals of 10% RH. Humidity was adjusted by increasing it by +10% RH after 6 h or upon achieving the equilibrium condition. The equilibrium condition was met when there was a <0.002% change in mass per minute within a span of 10 min. Upon completion of the sorption sequence, all samples were subjected to drying at 0% RH, which was stopped when the Δm/Δt was less than 0.002%/min within 10 min.

[2] = Intrinsic dissolution rate (IDR); assay type: physicochemical; settings: 37 °C
Procedure: The powdered sample (140 mg) was measured and compacted to a tablet hardness of 5 Kg by a tester, employing a small manual tablet press. […] Then, 0.3 mL of the solution was withdrawn, at 1 min intervals, and subsequently subjected to centrifugation (15,000 rpm, 3 min). Afterward, it was subjected to double dilution with methanol and analyzed for the presence of the drug using HPLC.

[3] = Solid-state stability, influencing factor testing (strong light, high humidity, elevated temperature); assay type: physicochemical; settings: for stability under influencing factor conditions: 4500 ± 500 lux; for stability under influencing factor conditions / crystal transformation (PXRD): 92.5 ± 5% RH, 50 ± 2 °C; for crystal transformation (PXRD): strong light 4500 ± 500 lux, 0, 5, 10 days; for change of IDR on the 5th and 10th days compared to day 0: strong light, high humidity and high temperature
Procedure: Influencing factor testing included a strong light irradiation test, a high-humidity test, and an elevated temperature test. The strong light irradiation test involved placement of the sample opening under a light with an intensity of 4500 ± 500 lux. The high-humidity test involved placement of the sample in a constant-humidity container at 25 °C and 92.5% RH (saturated potassium nitrate solution). The high-temperature test involved placing the sample in a DHG-9070A constant-temperature oven (Shanghai Yiheng Technology Instrument Co., Ltd., Shanghai, China), set at 50 °C. Samples were taken on the 0th, 5th, and 10th days, and the crystal structure and dissolution of the samples were assessed for significant differences based on PXRD and IDR, as outlined above.

[4] = Accelerated stability testing; assay type: physicochemical; settings: for stability under accelerated test conditions: 40 °C/75 ± 5% RH; for PXRD spectra under accelerated stability conditions: 40 ± 2 °C/75 ± 5% RH, 0, 3, 6 months
Procedure: Accelerated testing was utilized to contrast the stability of ABZ and its salts in the solid state. The solid variations were placed in an airtight container at 40 ± 2 °C with a humidity level of 75 ± 5% RH, and specimens were harvested at the intervals of 0, 3, and 6 months. PXRD analysis was used to ascertain whether there were any substantial alterations in dissolution properties and the crystal structure of the sample.

[5] = Pharmacokinetic comparison in Wistar rats after oral administration
Procedure: In vivo pharmacokinetic examination of albendazole and albendazole salts was performed in a half-male and half-female group of Wistar rats (n = 6), with an average body weight of 200 ± 20 g. The rats were fasted for one night before administration of albendazole at a dose of 25 mg/kg by gavage. Blood sampling was conducted by placing a jugular vein catheter surgically the day before administration. […] The tubes were centrifuged at 13,000× g for 10 min, and the upper plasma was collected and stored in an ultra-low-temperature freezer at −80 °C. Samples were processed by obtaining 100 μL of plasma; then, 400 μL of methanol was added, the samples were vortexed for 1 min, and they were centrifuged at 13,000× g for 5 min. Finally, 300 μL of the supernatant was obtained. A mixture of 6 μL of 10 μG/mL toluidazole internal standard solution was added to the supernatant. After 1 min of vortexing, the samples were centrifuged at 13,000× g for 5 min. The supernatant was then filtered through a microporous filter membrane before employing UPLC-HR-ESI-MS to assess the drug content.
The plasma concentrations of ABZ were assessed using a Dionex Ultimate 3000 RSLC system (Thermo Fisher, Waltham, MA, USA) equipped with an ACQUITY UPLC BEH C18 Column (130 Å, 150 mm × 2.1 mm × 2.6 μm) at a column temperature of 30 ± 1 °C. […] The MS analysis was conducted using a Q-Orbitrap MS coupled with heated electrospray ionization (HESI, Washington, DC, USA). The MS analysis was performed in full MS-ddMS^2 mode, with damping gas in the C-trap and nitrogen used to stabilize the spray. The auxiliary gas heater and capillary temperatures were established and maintained at 350 °C and 320 °C, respectively. In the negative mode, a spray voltage of 3.0 kV and an S-lens RF level of 60 V were employed. The full MS-ddMS^2 scan range was from 150.0000 to 1000.0000 m/z, and the precise molecular weight […] was employed for qualitative analysis. The corresponding peak area was utilized for quantitative analysis, and the MS^2 fragments were employed in further qualitative analysis.
The pharmacokinetic parameters were examined through non-compartment model analysis using DAS 2.0.

[6] = set-up: method as in PMID 12527162; settings: cited from earlier work
[7] = set-up: method as in PMID 18938096; settings: cited from earlier work
[8] = water at 25 °C; cited from earlier work
[9] = Wistar rats, oral 25 mg/kg, plasma ABZ
[10] = both, Wistar, rat, plasma, po, 25 mg/kg

| SMILES | water adsorption [1] | IDR ([2]; pH 2 buffer) | IDR ([2]; pH 7.4 buffer) | stability under influencing factor conditions [3] | crystal transformation (PXRD) [3] | change of IDR on the 5th and 10th days compared to day 0 [3] | stability under accelerated test conditions [4] | PXRD spectra under accelerated stability conditions [4] | Cmax increase compared to ABZ ([5]; Wistar rats, oral 25 mg/kg) | MRT(0–24) ([5]; Wistar rats, oral 25 mg/kg) | MRT(0–∞) ([5]; Wistar rats, oral 25 mg/kg) | T1/2 ([5]; Wistar rats, oral 25 mg/kg) | Tmax ([5]; Wistar rats, oral 25 mg/kg) | AUC(0–24) [5, 9] | AUC(0–∞) [5, 9] | Cmax [5, 9] | other results |
| --- | --- | --- | --- | --- | --- | --- | --- | --- | --- | --- | --- | --- | --- | --- | --- | --- | --- |
| CCCSc1ccc2[nH]c(NC(=O)OC)nc2c1.O=C(O)C=CC(=O)O [ABZ-FMA, albendazole fumarate] | 6.72% | 0.0328 mg·cm^−2·min^−1 | 0.0009 mg·cm^−2·min^−1 | remained stable for 10 days | not observed | no statistically significant difference | remained stable for 6 months | unchanged | approximately 3.8 times | 6.41 ± 0.66 h | 17.53 ± 15.90 h | 14.07 ± 14.37 h | 1.67 ± 1.17 h | 1205.56 ± 855.61 ng/mL/h | 1975.42 ± 1856.96 ng/mL/h | 260.58 ± 179.73 ng/mL | – |
| CCCSc1ccc2[nH]c(NC(=O)OC)nc2c1.O=C(O)C(O)C(O)C(=O)O [ABZ-DTA, albendazole D-tartrate] | 70.15% | 0.0730 mg·cm^−2·min^−1 | 0.0008 mg·cm^−2·min^−1 | remained stable for 10 days | not observed | no statistically significant difference | remained stable for 6 months | unchanged | ~4.6 times | 6.67 ± 0.61 h | 8.92 ± 1.51 h | 6.11 ± 1.21 h | 1.25 ± 0.61 h | 1835.37 ± 379.84 ng/mL/h | 1955.94 ± 431.79 ng/mL/h | 322.68 ± 68.67 ng/mL | weight increase by water adsorption ([1]; sharp increase when the RH reached 60%): 47.59% |
| CCCSc1ccc2[nH]c(NC(=O)OC)nc2c1.Cl [ABZ-HCl, albendazole hydrochloride] | 37.65% | 0.1128 mg·cm^−2·min^−1 | 0.0041 mg·cm^−2·min^−1 | remained stable for 10 days | not observed | no statistically significant difference | remained stable for 6 months | unchanged | ~6.9 times | 7.66 ± 2.08 h | 24.65 ± 33.76 h | 16.85 ± 23.17 h | 1.21 ± 0.68 h | 3089.28 ± 1228.16 ng/mL/h | 5371.96 ± 4618.85 ng/mL/h | 478.96 ± 138.62 ng/mL | – |
| CCCSc1ccc2nc(NC(=O)OC)[nH]c2c1 [ABZ, Albendazole] | 3.86% | 0.0096 mg·cm^−2·min^−1 | 0.0004 mg·cm^−2·min^−1 | – | – | – | – | – | – | – | – | – | – | – | – | – | change of IDR after being placed at 50 °C ([3]; 50 °C, 5 and 10 days vs day 0): increased; half-life ([5]; both, Wistar, rat, in vivo, po, 25 mg/kg): 5.98 ± 3.27 h; AUC(0-inf) [5, 10]: 374 ± 136 ng·h/mL; AUC(0-t) [5, 10]: 352 ± 147 ng·h/mL; Cmax [5, 10]: 69.6 ± 51.7 ng/mL; MRT inf [5, 10]: 9.19 ± 5.1 h; MRT last [5, 10]: 7.07 ± 2.27 h; Tmax [5, 10]: 2.54 ± 1.57 h; log P [6]: 2.54; oral bioavailability in humans [7]: less than 5%; solubility in water [8]: 22.8 µg/mL (≈ 85.9 µM) |
